The source made the active and inactive calls.
Key:
[1] = molecular target: T1, Sentrin-specific protease 8 (Homo sapiens, UniProt Q96LD8); test: SENP8 protease inhibitors, SAR follow-up, biochemical, luminescence (AID 504501); format: functional
T1 sequence (Q96LD8 whole entry): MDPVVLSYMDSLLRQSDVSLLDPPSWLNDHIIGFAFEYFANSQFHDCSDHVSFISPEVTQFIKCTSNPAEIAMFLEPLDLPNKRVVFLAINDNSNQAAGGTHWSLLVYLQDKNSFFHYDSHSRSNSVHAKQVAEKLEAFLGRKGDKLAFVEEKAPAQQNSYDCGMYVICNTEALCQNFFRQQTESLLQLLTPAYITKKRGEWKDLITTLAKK

[2] = molecular target: T2, Caspase-3 (Homo sapiens, UniProt P42574); test: SAR Analysis of small molecule inhibitors of Sentrin-specific proteases (SENPs) using a Caspase-3 Selectivity assay. [Related pubchem assays (depositor defined):AID2540, AID2599, AID434973, AID489001]; format: functional
T2 sequence (P42574 whole entry): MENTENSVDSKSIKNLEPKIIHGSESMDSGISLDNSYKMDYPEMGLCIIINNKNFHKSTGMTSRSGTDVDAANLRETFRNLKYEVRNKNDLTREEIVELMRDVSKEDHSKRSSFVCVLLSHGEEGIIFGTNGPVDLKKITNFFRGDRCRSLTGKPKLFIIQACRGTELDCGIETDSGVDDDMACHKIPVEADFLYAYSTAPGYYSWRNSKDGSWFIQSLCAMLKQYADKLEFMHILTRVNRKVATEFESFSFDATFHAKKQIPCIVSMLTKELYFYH

[3] = molecular target: T3, Sentrin-specific protease 6 (Homo sapiens, UniProt Q9GZR1); test: SAR Analysis of small molecule inhibitors of Sentrin-specific protease 6 (SENP6) using a Luminescent assay. [Related pubchem assays (depositor defined):AID2582, AID2599]; format: functional
T3 sequence (Q9GZR1 whole entry): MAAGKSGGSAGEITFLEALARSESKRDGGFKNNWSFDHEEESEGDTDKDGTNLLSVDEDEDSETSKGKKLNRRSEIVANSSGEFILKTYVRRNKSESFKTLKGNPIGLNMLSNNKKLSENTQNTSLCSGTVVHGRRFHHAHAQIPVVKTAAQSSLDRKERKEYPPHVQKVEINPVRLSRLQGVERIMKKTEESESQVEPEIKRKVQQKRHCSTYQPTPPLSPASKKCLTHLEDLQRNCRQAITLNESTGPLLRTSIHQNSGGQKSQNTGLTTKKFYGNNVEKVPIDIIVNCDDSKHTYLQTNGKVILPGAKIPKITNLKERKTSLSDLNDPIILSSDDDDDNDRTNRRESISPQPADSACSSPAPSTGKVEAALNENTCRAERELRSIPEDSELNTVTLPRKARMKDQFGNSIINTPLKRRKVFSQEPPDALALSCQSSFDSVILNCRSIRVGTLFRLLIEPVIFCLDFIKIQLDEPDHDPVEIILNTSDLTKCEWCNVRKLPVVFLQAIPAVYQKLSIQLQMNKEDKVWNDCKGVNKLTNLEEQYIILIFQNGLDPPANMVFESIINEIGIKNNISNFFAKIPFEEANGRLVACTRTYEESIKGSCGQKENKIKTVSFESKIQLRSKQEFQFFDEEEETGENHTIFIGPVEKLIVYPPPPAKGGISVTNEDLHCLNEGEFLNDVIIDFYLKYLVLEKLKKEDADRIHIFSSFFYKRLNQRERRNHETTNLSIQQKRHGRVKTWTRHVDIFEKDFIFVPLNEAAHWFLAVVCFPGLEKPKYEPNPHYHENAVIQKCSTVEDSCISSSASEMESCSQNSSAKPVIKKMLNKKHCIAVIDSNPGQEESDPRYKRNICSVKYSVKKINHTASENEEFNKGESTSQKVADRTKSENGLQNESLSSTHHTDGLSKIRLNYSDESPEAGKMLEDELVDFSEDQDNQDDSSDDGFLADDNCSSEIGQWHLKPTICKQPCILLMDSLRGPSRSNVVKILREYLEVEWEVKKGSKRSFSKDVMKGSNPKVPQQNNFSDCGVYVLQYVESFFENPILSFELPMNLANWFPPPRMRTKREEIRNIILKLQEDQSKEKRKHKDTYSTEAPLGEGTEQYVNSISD

[4] = molecular target: T4, Sentrin-specific protease 7 (Homo sapiens, UniProt Q9BQF6); test: SENP7 protease inhibitors, SAR follow-up, biochemical, luminescence (AID 504497); format: functional
T4 sequence (Q9BQF6 whole entry): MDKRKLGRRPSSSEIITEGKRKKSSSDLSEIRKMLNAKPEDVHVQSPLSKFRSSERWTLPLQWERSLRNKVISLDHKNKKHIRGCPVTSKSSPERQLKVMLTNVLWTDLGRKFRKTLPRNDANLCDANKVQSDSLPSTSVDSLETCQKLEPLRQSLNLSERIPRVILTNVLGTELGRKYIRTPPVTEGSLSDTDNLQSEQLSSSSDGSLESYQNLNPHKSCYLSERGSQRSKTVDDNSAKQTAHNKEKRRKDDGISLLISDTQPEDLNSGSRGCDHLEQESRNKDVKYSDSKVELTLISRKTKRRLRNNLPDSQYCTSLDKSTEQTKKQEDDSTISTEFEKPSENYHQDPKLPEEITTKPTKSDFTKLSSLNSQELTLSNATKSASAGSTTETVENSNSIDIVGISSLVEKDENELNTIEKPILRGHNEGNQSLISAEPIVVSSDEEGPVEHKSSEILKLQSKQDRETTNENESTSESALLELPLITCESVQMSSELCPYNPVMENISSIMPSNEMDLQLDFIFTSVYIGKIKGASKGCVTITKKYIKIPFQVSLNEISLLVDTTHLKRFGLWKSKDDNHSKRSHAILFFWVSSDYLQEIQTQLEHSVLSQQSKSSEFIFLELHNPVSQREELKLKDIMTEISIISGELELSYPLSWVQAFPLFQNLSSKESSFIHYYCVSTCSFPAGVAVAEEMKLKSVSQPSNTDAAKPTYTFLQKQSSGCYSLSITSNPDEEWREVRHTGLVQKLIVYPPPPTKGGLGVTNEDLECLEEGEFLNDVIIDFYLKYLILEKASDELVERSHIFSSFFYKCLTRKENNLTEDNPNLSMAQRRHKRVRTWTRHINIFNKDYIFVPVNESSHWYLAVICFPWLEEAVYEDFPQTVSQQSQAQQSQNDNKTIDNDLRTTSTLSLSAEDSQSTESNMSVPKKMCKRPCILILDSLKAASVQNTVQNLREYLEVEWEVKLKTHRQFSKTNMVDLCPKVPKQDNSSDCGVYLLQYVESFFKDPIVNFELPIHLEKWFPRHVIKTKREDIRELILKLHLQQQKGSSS

[5] = molecular target: Sphingosine 1-phosphate receptor 2 (Homo sapiens, UniProt O95136); test: Late-stage fluorescence-based dose-response cell-based counterscreen assay to identify agonists of the Sphingosine 1-Phosphate Receptor 3 (S1P3): Sphingosine 1-Phosphate Receptor 2 (S1P2) agonist assay.; format: functional
[6] = molecular target: Sphingosine 1-phosphate receptor 4 (Homo sapiens, UniProt O95977); test: Late-stage fluorescence-based dose-response cell-based counterscreen assay to identify agonists of the Sphingosine 1-Phosphate Receptor 3 (S1P3): Sphingosine 1-Phosphate Receptor 4 (S1P4) agonist assay.; format: functional
[7] = molecular target: Melanin-concentrating hormone receptor 1 (Homo sapiens, UniProt Q99705); test: Late-stage fluorescence-based counterscreen for antagonists of the G-protein coupled receptor 7 (GPR7): cell-based dose response assay to identify antagonists of the melanin-concentrating hormone receptor 1 (MCHR1) Set 6.; format: functional
[8] = molecular target: Neuropeptides B/W receptor type 1 (Homo sapiens, UniProt P48145); test: GPR7 antagonist potency, late-stage follow-up, cell-based, fluorescence, dose response, set 6 (AID 588583); format: functional
[9] = molecular target: T5, Aurora kinase A (Homo sapiens, UniProt O14965); format: functional;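 also: value from the Navigating the Kinome kinase panel profiling, panel entry STK6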
T5 sequence (O14965 whole entry): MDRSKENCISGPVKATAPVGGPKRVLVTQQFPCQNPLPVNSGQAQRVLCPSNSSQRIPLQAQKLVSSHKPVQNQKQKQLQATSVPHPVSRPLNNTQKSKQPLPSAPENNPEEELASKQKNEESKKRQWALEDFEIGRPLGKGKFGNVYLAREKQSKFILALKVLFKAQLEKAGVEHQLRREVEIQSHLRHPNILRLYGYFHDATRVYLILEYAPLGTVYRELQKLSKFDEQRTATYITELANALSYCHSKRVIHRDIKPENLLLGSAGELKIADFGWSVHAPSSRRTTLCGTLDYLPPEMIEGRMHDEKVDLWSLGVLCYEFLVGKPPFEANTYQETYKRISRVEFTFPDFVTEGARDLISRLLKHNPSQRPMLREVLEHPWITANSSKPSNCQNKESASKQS

[10] = molecular target: Cell division cycle 7-related protein kinase (Homo sapiens, UniProt O00311); format: functional;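 also: value obtained from a kinome-wide kinase panel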
[11] = molecular target: Aurora kinase B (Homo sapiens, UniProt Q96GD4); format: functional
[12] = molecular target: ALK tyrosine kinase receptor (Homo sapiens, UniProt Q9UM73); format: functional;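 also: ALK tested as one member of a kinase panel screen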
[13] = molecular target: Wee1-like protein kinase (Homo sapiens, UniProt P30291); test: Navigating the Kinome. Panel member name: WEE1; format: functional
[14] = molecular target: Heat shock protein HSP 90-alpha (Homo sapiens, UniProt P07900); format: functional, organism-based
[15] = tested on: Vero; test: cells; format: functional, cell-based; conditions: Chlorocebus sabaeus
[16] = Shn3 3'UTR reporter inhibitors, dose response, cell-based, Clone20 osteoblasts, firefly luciferase, cherry-picked (AID 624132); format: functional;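 also: firefly luciferase luminescence from reporter carrying the Shn3 3'UTR in osteoblasts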
[17] = HepG2 cell cytotoxicity, dose response, cytotoxicity control for Shn3 inhibitor project, CellTiter-Glo, cherry-picked (AID 624134); format: functional, cell-based
[18] = control 3'UTR Renilla luciferase suppression, dose response, counter-screen for Shn3 inhibitor project, cell-based, Clone20-Shn3RL, cherry-picked (AID 624133); format: functional
[19] = molecular target: Protein disulfide-isomerase (Homo sapiens, UniProt P07237); test: PDI inhibitors, insulin aggregation turbidity, dose response, biochemical, absorbance, cherry-picked samples (AID 602350); format: functional
[20] = tested on: Escherichia coli; test: microbe, parasite or virus in culture
[21] = tested on: Escherichia coli; test: microbe, parasite or virus in culture; remark: listed apart in the source
[22] = molecular target: T6, High affinity choline transporter 1 (Homo sapiens, UniProt Q9GZV3); test: CHT inhibitors, dose response, cell-based, 5-point CRC, membrane potential dye (AID 504840); format: functional
T6 sequence (Q9GZV3 whole entry): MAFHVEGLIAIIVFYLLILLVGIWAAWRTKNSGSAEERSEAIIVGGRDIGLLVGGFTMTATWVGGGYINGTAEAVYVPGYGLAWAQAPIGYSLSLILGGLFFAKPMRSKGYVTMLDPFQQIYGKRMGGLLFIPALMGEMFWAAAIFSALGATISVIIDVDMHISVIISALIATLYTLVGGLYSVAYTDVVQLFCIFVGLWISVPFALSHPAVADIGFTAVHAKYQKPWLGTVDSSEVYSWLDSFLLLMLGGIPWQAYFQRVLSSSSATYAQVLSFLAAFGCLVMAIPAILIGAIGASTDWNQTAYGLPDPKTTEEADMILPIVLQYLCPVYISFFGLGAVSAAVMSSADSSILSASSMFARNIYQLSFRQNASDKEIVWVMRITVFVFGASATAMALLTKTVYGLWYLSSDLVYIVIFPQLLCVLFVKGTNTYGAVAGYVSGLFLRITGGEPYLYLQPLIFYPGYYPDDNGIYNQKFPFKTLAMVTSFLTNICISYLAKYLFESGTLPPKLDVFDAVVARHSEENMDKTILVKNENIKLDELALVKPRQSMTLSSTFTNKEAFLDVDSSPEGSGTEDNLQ

[23] = molecular target: T6, High affinity choline transporter 1; test: CHT inhibitors, dose response, cell-based, 10-point CRC, membrane potential dye (AID 588401); format: functional;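 also: membrane potential dye fluorescence of choline-evoked depolarization via CHT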
[24] = molecular target: DNA dC->dU-editing enzyme APOBEC-3G (Homo sapiens, UniProt Q9HC16); test: APOBEC3G deaminase inhibitors, SAR follow-up, biochemical, fluorescence, single-stranded DNA substrate (AID 602136); format: functional; conditions: read-out: IC50_Mean
[25] = molecular target: DNA dC->dU-editing enzyme APOBEC-3A (Homo sapiens, UniProt P31941); test: SAR analysis of small molecule inhibitors of APOBEC3A DNA Deaminase via a fluorescence-based single-stranded DNA deaminase assay.; format: functional; conditions: read-out: IC50_Mean
Chain of DNA dC->dU-editing enzyme APOBEC-3A (P31941 whole entry): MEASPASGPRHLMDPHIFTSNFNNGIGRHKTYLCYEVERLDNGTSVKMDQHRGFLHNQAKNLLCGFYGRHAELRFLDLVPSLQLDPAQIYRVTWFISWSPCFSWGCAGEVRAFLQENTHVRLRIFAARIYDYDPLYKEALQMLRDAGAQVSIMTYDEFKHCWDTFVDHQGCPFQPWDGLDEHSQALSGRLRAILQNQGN

Chain of Neuropeptides B/W receptor type 1 (P48145 whole entry): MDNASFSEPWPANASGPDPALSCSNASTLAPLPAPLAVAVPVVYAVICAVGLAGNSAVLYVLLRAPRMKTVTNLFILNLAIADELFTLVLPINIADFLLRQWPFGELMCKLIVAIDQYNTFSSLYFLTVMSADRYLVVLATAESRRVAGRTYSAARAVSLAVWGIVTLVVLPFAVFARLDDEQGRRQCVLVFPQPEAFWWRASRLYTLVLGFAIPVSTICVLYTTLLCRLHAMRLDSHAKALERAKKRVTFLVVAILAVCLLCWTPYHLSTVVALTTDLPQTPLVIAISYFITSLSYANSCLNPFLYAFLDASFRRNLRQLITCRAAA
Chain of Melanin-concentrating hormone receptor 1 (Q99705 whole entry): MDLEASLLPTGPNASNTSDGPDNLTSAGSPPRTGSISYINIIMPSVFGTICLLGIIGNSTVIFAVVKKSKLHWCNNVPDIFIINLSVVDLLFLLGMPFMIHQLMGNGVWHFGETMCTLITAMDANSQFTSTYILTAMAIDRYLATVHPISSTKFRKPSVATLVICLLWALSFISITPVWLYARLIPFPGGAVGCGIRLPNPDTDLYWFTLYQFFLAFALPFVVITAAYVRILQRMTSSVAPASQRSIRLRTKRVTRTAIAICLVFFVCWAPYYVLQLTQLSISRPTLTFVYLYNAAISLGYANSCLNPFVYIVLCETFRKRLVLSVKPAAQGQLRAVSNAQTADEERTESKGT
Chain of Protein disulfide-isomerase (P07237 whole entry): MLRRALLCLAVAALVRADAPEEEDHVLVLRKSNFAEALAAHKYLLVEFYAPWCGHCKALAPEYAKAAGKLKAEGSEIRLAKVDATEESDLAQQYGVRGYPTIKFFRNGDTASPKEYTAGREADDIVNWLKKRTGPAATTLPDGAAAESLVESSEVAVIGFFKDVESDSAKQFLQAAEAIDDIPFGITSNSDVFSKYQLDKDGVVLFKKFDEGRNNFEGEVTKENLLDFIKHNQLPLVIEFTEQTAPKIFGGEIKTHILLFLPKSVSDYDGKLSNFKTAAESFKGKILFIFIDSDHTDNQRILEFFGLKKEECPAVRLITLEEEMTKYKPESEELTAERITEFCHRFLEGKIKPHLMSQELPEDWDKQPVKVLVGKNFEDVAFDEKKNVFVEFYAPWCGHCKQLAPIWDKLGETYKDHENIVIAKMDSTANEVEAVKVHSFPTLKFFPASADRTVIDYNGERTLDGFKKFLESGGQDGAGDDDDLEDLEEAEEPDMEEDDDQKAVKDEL
Chain of Sphingosine 1-phosphate receptor 2 (O95136 whole entry): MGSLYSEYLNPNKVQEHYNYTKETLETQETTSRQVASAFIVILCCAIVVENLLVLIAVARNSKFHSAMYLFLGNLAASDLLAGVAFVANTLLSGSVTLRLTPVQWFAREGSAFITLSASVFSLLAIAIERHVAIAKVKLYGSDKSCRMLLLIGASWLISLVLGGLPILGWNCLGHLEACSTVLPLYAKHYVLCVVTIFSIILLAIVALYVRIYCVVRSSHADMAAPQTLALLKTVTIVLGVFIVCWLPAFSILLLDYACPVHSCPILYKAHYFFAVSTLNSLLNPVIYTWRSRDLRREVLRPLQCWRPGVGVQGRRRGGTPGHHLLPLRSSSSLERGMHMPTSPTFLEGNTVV
Chain of Wee1-like protein kinase (P30291 whole entry): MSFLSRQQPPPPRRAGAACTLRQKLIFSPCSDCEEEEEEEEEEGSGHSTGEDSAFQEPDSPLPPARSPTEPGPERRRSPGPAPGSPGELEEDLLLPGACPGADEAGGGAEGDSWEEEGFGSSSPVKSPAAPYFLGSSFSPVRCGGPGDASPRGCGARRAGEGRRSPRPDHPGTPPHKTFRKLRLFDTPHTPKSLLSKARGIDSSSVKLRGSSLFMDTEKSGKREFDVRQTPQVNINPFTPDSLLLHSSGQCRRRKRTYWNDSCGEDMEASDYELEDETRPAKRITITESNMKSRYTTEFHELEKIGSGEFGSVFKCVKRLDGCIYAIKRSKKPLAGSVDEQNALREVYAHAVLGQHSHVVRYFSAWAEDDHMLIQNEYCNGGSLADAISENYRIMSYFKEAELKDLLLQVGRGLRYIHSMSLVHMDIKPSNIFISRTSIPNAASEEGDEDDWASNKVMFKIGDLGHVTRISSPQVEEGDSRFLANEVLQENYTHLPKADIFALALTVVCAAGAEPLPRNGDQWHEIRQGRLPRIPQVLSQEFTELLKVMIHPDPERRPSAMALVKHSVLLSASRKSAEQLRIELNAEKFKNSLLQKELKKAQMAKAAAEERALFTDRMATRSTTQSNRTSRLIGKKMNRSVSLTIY
Chain of DNA dC->dU-editing enzyme APOBEC-3G (Q9HC16 whole entry): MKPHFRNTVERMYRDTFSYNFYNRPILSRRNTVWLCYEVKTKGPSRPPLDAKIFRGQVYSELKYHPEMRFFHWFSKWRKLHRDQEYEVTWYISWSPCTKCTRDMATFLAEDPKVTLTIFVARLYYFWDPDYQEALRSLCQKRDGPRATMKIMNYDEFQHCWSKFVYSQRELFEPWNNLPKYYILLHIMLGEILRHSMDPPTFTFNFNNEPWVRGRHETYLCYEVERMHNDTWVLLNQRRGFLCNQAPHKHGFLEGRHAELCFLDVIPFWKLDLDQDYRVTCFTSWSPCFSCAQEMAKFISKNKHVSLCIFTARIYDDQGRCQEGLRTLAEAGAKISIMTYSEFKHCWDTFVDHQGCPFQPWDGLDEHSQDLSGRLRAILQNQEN
Chain of Cell division cycle 7-related protein kinase (O00311 whole entry): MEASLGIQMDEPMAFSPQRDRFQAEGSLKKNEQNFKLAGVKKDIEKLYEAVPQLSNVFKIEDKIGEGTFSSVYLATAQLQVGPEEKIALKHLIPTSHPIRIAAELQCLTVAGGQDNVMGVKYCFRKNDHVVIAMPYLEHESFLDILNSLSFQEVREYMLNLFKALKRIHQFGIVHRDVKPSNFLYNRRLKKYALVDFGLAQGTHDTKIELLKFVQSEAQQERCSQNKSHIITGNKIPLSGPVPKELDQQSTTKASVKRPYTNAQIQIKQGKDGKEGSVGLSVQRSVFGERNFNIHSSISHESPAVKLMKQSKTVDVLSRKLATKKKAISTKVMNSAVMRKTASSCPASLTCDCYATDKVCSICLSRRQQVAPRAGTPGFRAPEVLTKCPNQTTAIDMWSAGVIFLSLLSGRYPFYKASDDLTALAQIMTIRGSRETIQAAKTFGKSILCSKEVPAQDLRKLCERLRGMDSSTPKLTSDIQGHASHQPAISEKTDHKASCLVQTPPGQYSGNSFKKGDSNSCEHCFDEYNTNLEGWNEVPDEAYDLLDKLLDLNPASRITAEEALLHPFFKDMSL
Chain of Sphingosine 1-phosphate receptor 4 (O95977 whole entry): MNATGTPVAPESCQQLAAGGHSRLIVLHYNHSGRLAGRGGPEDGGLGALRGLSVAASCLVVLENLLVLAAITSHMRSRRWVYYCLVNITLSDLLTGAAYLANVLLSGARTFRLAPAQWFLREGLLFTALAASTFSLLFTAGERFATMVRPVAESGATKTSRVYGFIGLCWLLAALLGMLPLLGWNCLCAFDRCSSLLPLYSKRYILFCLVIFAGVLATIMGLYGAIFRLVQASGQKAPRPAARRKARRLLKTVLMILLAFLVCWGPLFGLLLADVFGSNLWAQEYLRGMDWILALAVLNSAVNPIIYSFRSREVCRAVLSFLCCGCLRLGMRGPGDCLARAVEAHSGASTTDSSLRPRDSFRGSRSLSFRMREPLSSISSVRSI
Chain of Aurora kinase B (Q96GD4 whole entry): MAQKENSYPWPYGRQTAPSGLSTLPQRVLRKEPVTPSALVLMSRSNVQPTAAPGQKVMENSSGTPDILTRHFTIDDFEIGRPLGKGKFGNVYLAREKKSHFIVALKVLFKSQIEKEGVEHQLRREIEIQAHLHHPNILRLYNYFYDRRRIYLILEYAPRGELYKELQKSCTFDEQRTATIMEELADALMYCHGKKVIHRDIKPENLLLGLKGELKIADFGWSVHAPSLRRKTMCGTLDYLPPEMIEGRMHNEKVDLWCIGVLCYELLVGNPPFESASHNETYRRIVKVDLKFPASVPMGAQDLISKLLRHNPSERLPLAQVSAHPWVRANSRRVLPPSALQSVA

SMILES: CC(C)CC(=O)Nc1ccc(-c2nc3cc(Cl)ccc3o2)cc1
- IC50 [1]: > 99 µM (inactive)
- IC50 [2]: 51.9 µM (active)
- IC50 [3]: > 99 µM (inactive)
- IC50 [4]: > 99 µM (inactive)

SMILES: CC1CCCCC1N(C(=O)c1cc(C2CC2)on1)C1CCCCC1 (stereo not given)
- EC50 [5]: > 50 µM (inactive)
- EC50 [6]: > 50 µM (inactive)

SMILES: CCOc1ccccc1Cn1ncc(Cl)c(Oc2ccc(OC)cc2)c1=O
- IC50 [7]: ~0.624 µM (active)
- IC50 [8]: ~0.624 µM (active)

SMILES: COc1ccc(Nc2nccc(Nc3ccccc3C(=O)O)n2)cc1O
- Ki [9]: 0.02 µM (active)
- Ki [10]: 0.000126 µM (active)
- Ki [11]: 0.00501 µM (active)

SMILES: CCN1CCN(c2ccc(Nc3ncc(C(F)(F)F)c(Nc4ccc5[nH]ncc5c4)n3)cc2)CC1
- Ki [12]: 0.0158 µM (active)
- Ki [13]: 0.00794 µM (active)

SMILES: COc1cc2cc(C(=O)N3CC(COS(C)(=O)=O)c4ccc(O)cc43)[nH]c2c(OC)c1OC (stereo not given)
- AC50 [14]: 0.708 µM (active)
- IC50 [15]: 8.57 µM (active)
- AC50 [16]: < 0.26 µM (active)
- AC50 [17]: 0.352 µM (active)
- AC50 [18]: < 0.26 µM (active)
- AC50 [19]: 18 µM (active)
- AC50 [20]: 4.26 µM (active)
- AC50 [21]: 22.8 µM (active)

SMILES: CC(CN1CCN(C)CC1)OC(=O)c1ccccc1Cl (stereo not given)
- IC50 [22]: 10 µM (active)
- IC50 [23]: 4.22 µM (active)

SMILES: Cn1c(SCC(=O)N(Cc2ccccc2)Cc2ccco2)nnc1-c1ccc(F)cc1
- IC50 [24]: > 99 µM (inactive)
- IC50 [25]: > 99 µM (inactive)

Source: ChEMBL document CHEMBL1201862, “PubChem BioAssay data set” (2004)
